According to patent publication US20250092086A1, “CELASTROL SALTS, CRYSTALLINE FORMS, AND USES THEREOF” (ERX Pharmaceuticals Inc., priority 2022, published 2025):

Assays:
[1] = Hygroscopicity (DVS), water sorption/desorption at 37° C.; assay type: physicochemical; conditions: for DVS (hygroscopicity): water sorption/desorption isotherms at 37° C., 0-95% RH
Experimental: The hygroscopicity experiments were carried out with a DVS Intrinsic from S.M.S. This technique is designed to accurately measure a sample's change in mass as it sorbs precisely controlled concentrations of water vapors in an air carrier gas. The method used for DVS experiments (at 37° C.) is summarized below. • Equilibrating 10 min at 50% RH • Decreasing to 0% RH in 60 min • Equilibrating 10 min at 0% RH • Increasing to 95% RH in 280 min • Equilibrating 10 min at 95% RH • Decreasing to 50% RH in 100 min • Equilibrating 20 min at 50% RH
The hygroscopic experiments were carried out with a DVS Intrinsic from S.M.S. This technique is designed to accurately measure a sample's change in mass as it sorbs precisely controlled concentrations of water vapors in an air carrier gas. All the methods used for DVS experiments are summarized below. It should be noticed that the temperature and relative humidity (RH) are pre-set according to the initial temperature and RH.
• Equilibrating 120 min at 50% RH • Decreasing to 0% RH in 60 min • Equilibrating 150 min at 0% RH • Increasing to 95% RH in 200 min • Equilibrating 360 min at 95% RH • Decreasing to 50% RH in 100 min • Equilibrating 150 min at 50% RH
The hygroscopicity experiments were carried out with a DVS Intrinsic from S.M.S. This technique is designed to accurately measure a sample's change in mass as it sorbs precisely controlled concentrations of water vapors in an air carrier gas. All the methods used for DVS experiments are summarized below, and it should be noticed that the temperature and relative humidity (RH) are pre-set according to the initial temperature and RH.
The hygroscopicity experiments were carried out with a DVS Intrinsic from S.M.S. This technique is designed to accurately measure a sample's change in mass as it sorbs precisely controlled concentrations of water vapors in an air carrier gas. All the methods used for DVS experiments are summarized below. It should be noticed that the temperature and relative humidity (RH) are pre-set according to the initial temperature and RH.

[2] = XRPD under temperature and relative humidity; assay type: physicochemical; conditions: for XRPD under temperature: impact / new crystalline phase: 25 to 100° C., RH set at 30%; for XRPD under relative humidity: impact / new crystalline phase: RH 10 to 80-90% at 40° C.
Experimental: Method 1: influence of temperature at ambient RH. RH was set at 30% in order to simulate a RH near from the ambient RH, and the temperature studied were 25-[…]-100° C.
Method 2: influence on RH at 40° C. The RH studied was at 10-30-80%.
These experiments studied the influence of temperature at ambient RH. RH was wet at 30% in order to simulate a RH near from the ambient RH, and the temperatures studied were 25-50-100° C.
These experiments studied the influence on RH at 40° C. The RH studied were 10-30-88%.
Using Method 1, the influence of temperature at ambient RH was studied. RH was set at 30% in order to simulate a RH near from the ambient RH, and the temperatures studied were 25-50-100° C. FIG. 24 provides the XRPD pattern representing the influence of temperature on Compound 1 Form I.
Using Method 2, the influence on RH at 40° C. was studied. The RH studied were 10-30-90%.
Using Method 1, the influence of temperature at ambient RH was studied. RH was set at 30% in order to simulate a RH near from the ambient RH. Temperature studied: 25-50-100° C.
Using Method 2, the influence on RH at 40° C. was studied at 10-30-90%.

Structure (SMILES): CC1=C(O)C(=O)C=C2C1=CC=C1[C@@]2(C)CC[C@@]2(C)[C@@H]3C[C@](C)(C(=O)O)CC[C@]3(C)CC[C@]12C [Compound 1 Form II, 3-hydroxy-9β,13α-dimethyl-2-oxo-24,25,26-trinoroleana-1(10),3,5,7-tetraen-29-oic acid]
- Hysteresis observed with the final mass at 50% RH ([1]; DVS, 37° C.): No hysteresis
- Mass decrease as the RH was lowered to 0% ([1]; DVS, 37° C.): ~0.08 % w/w
- Mass increase as the RH was increased to 95% ([1]; DVS, 37° C.): about 0.13 % w/w
- Water uptake, water sorption/desorption isotherms ([1]; DVS, 37° C.): < 0.2 % w/w
- DVS (hygroscopicity) [1]: non-hygroscopic
- DVS (hygroscopicity) ([1]; listed as FII): Not hygroscopic
- XRPD under temperature: impact / new crystalline phase [2]: No impact
- XRPD under temperature: impact / new crystalline phase ([2]; listed as FII): =>No new crystalline
- XRPD under relative humidity: impact / new crystalline phase [2]: No impact
- XRPD under relative humidity: impact / new crystalline phase ([2]; listed as FII): =>No new crystalline
- Physical stability under the conditions tested (temperature and RH) ([2]; XRPD, 25-100° C. and 10-90% RH at 40° C.): good stability
